In brackets after ≈: the same amount, converted by molar mass.
Columns and labels:
[1] = Cytotoxicity against L929 cells, MTT cell viability assay (ISO 10993-5:2009(E)); type: cell-based; conditions: mouse, L929 mouse fibroblast cells; for viability at 24 h, 5 µg/mL / viability at 24 h, 25 µg/mL / viability at 24 h, 50 µg/mL / viability at 24 h, 125 µg/mL / viability at 24 h, 250 µg/mL / viability at 24 h, 500 µg/mL / viability at 24 h, 1000 µg/mL: read-out: viability of L929 cells (% of viable cells); for CC50 at 24 h: 50% cell proliferation inhibition, L929 cells
Source text: Since T. gondii is an obligate intracellular parasite that requires invasion of mammalian host cells to proliferate, compounds that inhibit parasite growth might be toxic to host cells as well. Therefore, as an initial indicator for host cell toxicity, we firstly evaluated compounds 5–16 for their ability to inhibit the growth of mouse fibroblast (L929) cells line according to the international standards: ISO 10993-5:2009(E).
To calculate the reduction of viability compared to the untreated blank the equation was used: viability (%) = 100% × sample OD570 (the mean value of the measured optical density of the treated cells)/blank OD570 (the mean value of the measured optical density of the untreated cells). CC50—represents the concentration of tested compounds that was required for a 50% cell proliferation inhibition in vitro. The effect of the tested compounds on the cell lines was measured using MTT assay according to the international standard: ISO 10993-5:2009(E). CC50 values were determined based on the plotted curves using GraphPad Prism program (version 8.0.1).
Cell culture: the L929 mouse fibroblast (ATTC® CCL-1™) was routinely cultured in IMDM (Iscove’s Modified Dulbecco Medium, Biowest, Nuaille, France), supplemented with 10% HIFBS, 100 U/mL penicillin and 100 μg/mL streptomycin. Cells were trypsinized twice a week and seeded at a density of 1 × 10^6 per T25 cell culture flask and incubated for 24–48 h in a 37 °C and 10% CO2 to achieve a confluent monolayer.
Cell viability assay: Assays were performed according to international standards: ISO 10993-5:2009(E), Biological evaluation of medical devices, Part 5: Tests for in vitro cytotoxicity. Cell viability were evaluated using the tetrazolium salt [3-(4,5-dimethylthiazol-2-yl)-2,5-diphenyltetrazolium bromide] (Sigma) and mouse fibroblasts L929 cells. For this assay we used only the culture medium, RPMI 1640, without phenol red (Biowest) supplemented with 10% HIFBS, 2 mM L-glutamine (Sigma), 100 U/mL penicillin, 100 μg/mL streptomycin. Shortly after, a 1 × 10^4/well of L929 cells were placed into 96-well plates and incubated in 37 °C and 10% CO2. Afterwards, an old culture medium was replaced by 100 μL of compounds and drugs dilutions in culture medium and the cells were treated for 24 h. Moreover, cells were treated with a 4.0–0.03% concentration of DMSO and 1M NaOH as a compound and drugs solvent (data not shown). Then, 50 μL of 1 mg/mL of MTT solution in RPMI 1640 without phenol red was added to each well and incubated 2h (37 °C, 10% CO2). Next, cell culture medium was aspirated cautiously and 150 μL of DMSO was added to each well, the plates were gently mixed. Then 25 μL 0.1M glycine buffer (pH = 10.5) (Sigma) was added. The optical density at 570 nm on the ELISA reader (Multiskan EX, Labsystems, Vienna, VA, USA), was read. The results were expressed as a percentage of viability compared to untreated cells. All experiments were performed in triplicate. For comparison reasons, two compounds known from our previous studies (6 and 9) were included in the bioassay performed for compounds 5, 7, 8, 9–16.

[2] = test system: Toxoplasma gondii RH strain tachyzoites (ATCC PRA 310); assay: Influence on T. gondii proliferation in Hs27 cells, [3H]-uracil incorporation assay; type: cell-based; conditions: for IC50: Toxoplasma gondii, HS27, 50% inhibition of T. gondii RH proliferation in vitro, Hs27 host cells, [3H]-uracil incorporation; for SR (selectivity ratio): ratio of CC50 (L929) to IC50 (T. gondii)
[3] = Lipophilicity by HPLC (logkw extrapolation, OECD guideline); type: physicochemical; conditions: Phenomenex Synergi 4 µm Polar-RP column, methanol:water, calibration with seven standards
Experimental: HPLC experiments were performed using a chromatograph equipped with an Elite LaChrom L-2130 gradient pump, L-2455 DAD detector, L-2300 column oven, and L-2200 autosampler (Hitachi-Merck, Darmstadt, Germany). The tested samples were applied into the Phenomenex Synergi 4 µm Polar-RP chromatographic column (Phenomenex, Torrance, CA, USA) (150 mm length, 4.6 mm i.d.). Mobile phases were degassed using a built-in membrane degasser.
Chromatographic analysis: 5 µL of each sample (0.1% methanolic solutions) was applied into the chromatographic column and chromatograms were developed at a flow rate of 1.0 mL min^−1 in the isocratic mode using various concentrations of methanol in the binary polar mobile phase: methanol:water (40:60, 45:55, 50:50, 55:45, 60:40, 65:35, and 70:30 (v/v)) Chromatograms were detected at 254 nm. All experiments were repeated in triplicate, and the final results were their arithmetic mean. Dead time was measured for uracil (Calbiochem—Merck, Darmstadt, Germany). All the experiments were performed at ambient temperature.
The chromatographic lipophilicity parameter (logkw) for 5–16 was obtained by the extrapolation of the retention parameter logk to pure water, according to the equation: logk = logkw − S × φ(1) where logkw is the value of the retention factor of a substance in pure water, S is the slope of the regression curve, and φ is the concentration (v/v) of methanol in the mobile phase.
Subsequently, logPHPLC parameters for 5–16 were calculated according to OECD guidelines, based on the equation obtained for seven standards with known lipohilicity parameters (logPo/w): logPo/w = 1.0239(± 0.03)·logkw − 0.1541(± 0.08); n = 7; r = 0.9976; se = 0.08; F = 1047.8(2)

[4] = test system: Toxoplasma gondii tachyzoites; set-up: method as in PMID 30744161; conditions: ref [19], cited from earlier work; for IC50: inhibition of T. gondii tachyzoite proliferation, previous study; for SR (selectivity ratio): ratio of CC50 to IC50, previous study

Row | chromatographic logP [3] | melting point [°C] | SMILES | viability at 24 h, 5 µg/mL [1] [%] | viability at 24 h, 25 µg/mL [1] [%] | viability at 24 h, 50 µg/mL [1] [%] | viability at 24 h, 125 µg/mL [1] [%] | viability at 24 h, 250 µg/mL [1] [%] | viability at 24 h, 500 µg/mL [1] [%] | viability at 24 h, 1000 µg/mL [1] [%] | CC50 at 24 h [1] [µg/mL] | IC50 [2] [µg/mL] | SR (selectivity ratio) [2] | IC50 [4] | SR (selectivity ratio) [4] [fold]
1 | 3.51 |  | Cc1nc[nH]c1C(=O)NNC(=S)Nc1cccc(Cl)c1 [Compound 9] | 93.9 | 88.5 | 75.3 | 64.7 | 56.7 | 30.2 | 8.47 | 273 (≈ 881 µM) | 24.1 (≈ 78 µM) | 11.30 |  | 
2 |  |  | Cc1nc[nH]c1C(=O)NNC(=S)Nc1ccc([N+](=O)[O-])cc1 [Compound 2] |  |  |  |  |  |  |  |  |  |  | 21.62 µg/mL (≈ 67.5 µM) | 16
3 | 3.23 | 205 to 207 | Cc1nc[nH]c1C(=O)NNC(=S)Nc1ccccc1Br [Compound 11, 4-(2-Bromophenyl)-1-(4-methylimidazol-5-oyl)thiosemicarbazide] | 94.7 | 93 | 87.5 | 76.3 | 70 | 47.1 | 29.8 | 495 (≈ 1400 µM) | 27.6 (≈ 78.1 µM) | 17.91 |  | 
4 |  |  | Cc1nc[nH]c1C(=O)NNC(=S)Nc1cccc([N+](=O)[O-])c1 [Compound 1] |  |  |  |  |  |  |  |  |  |  | 14.78 µg/mL (≈ 46.1 µM) | 18
5 | 2.8 |  | Cc1nc[nH]c1C(=O)NNC(=S)Nc1ccc(F)cc1 [Compound 7] | 103 | 103 | 89.2 | 83.1 | 69.9 | 61.4 | 48.7 | 977 (≈ 3330 µM) | ≥ 69 | 8.86 |  | 
6 | 3.64 |  | Cc1nc[nH]c1C(=O)NNC(=S)Nc1ccc(Br)cc1 [Compound 13, 4-(4-Bromophenyl)-1-(4-methylimidazol-5-oyl)thiosemicarbazide] | 93.5 | 82 | 64.1 | 56.6 | 51.1 | 42.1 | 30.8 | 224 (≈ 631 µM) | 14.6 (≈ 41.1 µM) |  |  | 
7 |  |  | COc1cc(Cc2cnc(N)nc2N)cc(OC)c1OC [trimethoprim, 2,4-diamino-5-(3,4,5-trimethoxybenzyl)pyrimidine, reference compound] |  |  |  |  |  |  |  | > 32 | 12.1 (≈ 41.8 µM) | >2.64 |  | 
8 |  |  | Cc1ccc(NC(=S)NNC(=O)c2[nH]cnc2C)cc1Cl [Compound 4] |  |  |  |  |  |  |  |  |  |  | 18.62 µg/mL (≈ 57.5 µM) | 4
9 | 3.71 |  | Cc1nc[nH]c1C(=O)NNC(=S)Nc1cccc(Br)c1 [Compound 12, 4-(3-Bromophenyl)-1-(4-methylimidazol-5-oyl)thiosemicarbazide] | 95.3 | 89 | 74.4 | 65.7 | 56.8 | 20.2 | 7.52 | 238 (≈ 671 µM) | 15.6 (≈ 44.2 µM) |  |  | 
10 | 2.99 |  | Cc1nc[nH]c1C(=O)NNC(=S)Nc1cccc(F)c1 [Compound 6] | 96.3 | 97.3 | 75.4 | 64.8 | 62.4 | 52.3 | 35.4 | 885 (≈ 3020 µM) | ≥ 69 | 7.79 |  | 
11 | 2.8 |  | Cc1nc[nH]c1C(=O)NNC(=S)Nc1ccccc1F [Compound 5] | 98.1 | 97.3 | 74.8 | 87 | 69.3 | 64.1 | 45.8 | 455 (≈ 1550 µM) | ≥ 69 | 6.61 |  | 
12 |  |  | Nc1ccc(S(=O)(=O)Nc2ncccn2)cc1 [sulfadiazine, 4-amino-N-(2-pyrimidinyl)benzenesulfonamide, reference compound] |  |  |  |  |  |  |  | > 2500 | > 2500 | <0.92 | ~ 2721.45 µg/mL | 
13 | 3.23 |  | Cc1nc[nH]c1C(=O)NNC(=S)Nc1ccccc1I [Compound 14, 4-(2-Iodophenyl)-1-(4-methylimidazol-5-oyl)thiosemicarbazide] | 95.2 | 92.8 | 83.7 | 65.4 | 44.5 | 26.1 | 25 | 199 (≈ 496 µM) | 20.3 (≈ 50.6 µM) |  |  | 
14 |  |  | Cc1nc[nH]c1C(=O)NNC(=S)Nc1cccc(Cl)c1 [Compound 3] |  |  |  |  |  |  |  |  |  |  | 25.70 µg/mL (≈ 83 µM) | 10
15 | 3.44 |  | Cc1nc[nH]c1C(=O)NNC(=S)Nc1ccc(Cl)cc1 [Compound 10] | 103 | 96.3 | 70.3 | 63.6 | 56.6 | 23.6 | 13.6 | 231 (≈ 746 µM) | ≥ 69 | 3.15 |  | 

Source: PMC6514996, “Discovery of Potent and Selective Halogen-Substituted Imidazole-Thiosemicarbazides for Inhibition of Toxoplasma gondii Growth In Vitro via Structure-Based Design” (Molecules, 2019)
